In patent US20210353668A1, “CALCIUM COMPOSITION” (PerformaNat GmbH, priority 2018, published 2021):

Test system: Ruminal epithelium of sheep
Assay: Measurement of Ca-flux (45Ca2+ net flux) across ruminal epithelium in the Ussing chamber
Type: cell-based
Experimental: Measurement of Ca-Flux Across Ruminal Epithelium in the Ussing-Chamber
Ruminal epithelium of sheep was mounted in a conventional Ussing chamber. Chambers contained 16 ml of serosal or mucosal buffer, which was circulated and gassed by a gas lift system (5% CO2/95% O2).
In this experiment 24 chambers were divided into three groups. Group 1 (mucosal buffer containing 1.8 mM CaCl2), group 2 (mucosal buffer containing 3.6 mM CaCl2) and group 3 (containing 7.2 mM CaCl2). The same buffer was present on the serosal side of all chambers (Table 1). Each group (1,2,3) was again divided into two parts. One was defined as control group one as EO group. It is noted that the amounts correspond to a normal Ca^2+ concentration in the rumen (1.8 mM) (referred to as Comparative Example A) and to treated rumen corresponding to the administration of about 13 g Ca (3.6 mM) and 26 g Ca (7.2 mM) (referred to as Examples 1 and 2, respectively).
After an equilibrating time of around 30 minutes ^45Ca^2+ (40 kBq per 16 ml chamber) was added to either to the mucosal or serosal “hot” side.
Depending on the group 16 μl ethanol (Control) or 16 μl essential oil (EO) were added to the mucosal side of the chamber. The essential oil used is menthol, and the actual menthol concentration obtained is 50 μM.
After 70 minutes the first sample from the “cold” side was taken, followed by five samples of each 900 μl which were taken in an interval of 30 minutes. The sample volume was replaced by an aliquot of the respective buffer. Radioactivity was measured using a β-counter (LKB Wallace-Perkin-Elmer, Überlingen, Germany).
Epithelia were paired after sorting for transepithelial conductance (Gt) and the net calcium flux was calculated from the difference between mucosal to serosal flux and serosal to mucosal flux for paired epithelia.
The net transport of calcium across the isolated ruminal epithelium was calculated by subtracting the calcium secretion (serosal to mucosal transport) from the calcium absorption (mucosal to serosal transport) reflecting the real absorption of calcium from the rumen to the blood side. For statistical analysis linear mixed effect models for repeated measures were calculated using mucosal calcium concentration and the addition of essential oils as fixed effects and animal as random effect (SAS System, method MIXED PROC). The effects of calcium concentration and the addition of essential oils was calculated as well as their interaction. Furthermore, the effect of sampling time was included to the model. Effects were evaluated for the repeated measures of the consecutive flux periods.

CC1CCC(C(C)C)C(O)C1 (stereo not shown) [menthol]
calcium flux compared to the control (in words) (all three Ca concentrations (1.8, 3.6, 7.2 mM), menthol present): increased
increase of calcium absorption by addition of EO (mucosal Ca 1.8 mM): 6.06 nmol/cm^2/h
increase of calcium absorption by addition of EO (mucosal Ca 3.6 mM): 2.52 nmol/cm^2/h
increase of calcium absorption by addition of EO (mucosal Ca 7.2 mM): 8.22 nmol/cm^2/h
